From ChEMBL document CHEMBL3046801, “Synthesis of 2-R1-2-(4-(2-fluoroethoxy)benzamido)acetate as potential PET imaging agents” (Med Chem Res, 2012)

Experiments:
Liver [1] = experiment: Biodistribution in tumor bearing Mus musculus KM (mouse) liver at 30 min by microPET imaging analysis; format: ADME, organism-based; conditions: in vivo, 0.5 h
Liver [2] = experiment: Biodistribution in tumor bearing Mus musculus KM (mouse) liver at 60 min by microPET imaging analysis; format: ADME, organism-based; conditions: in vivo, 1 h
Liver [3] = experiment: Biodistribution in tumor bearing Mus musculus KM (mouse) liver at 5 min by microPET imaging analysis; format: ADME, organism-based; conditions: in vivo
Liver [4] = experiment: Biodistribution in tumor bearing Mus musculus KM (mouse) liver at 15 min by microPET imaging analysis; format: ADME, organism-based; conditions: in vivo, 0.25 h
Heart [5] = experiment: Biodistribution in tumor bearing Mus musculus KM (mouse) heart at 120 min by microPET imaging analysis; format: ADME, organism-based; conditions: in vivo, 2 h
Heart [6] = experiment: Biodistribution in tumor bearing Mus musculus KM (mouse) heart at 60 min by microPET imaging analysis; format: ADME, organism-based; conditions: in vivo, 1 h
Heart [7] = experiment: Biodistribution in tumor bearing Mus musculus KM (mouse) heart at 30 min by microPET imaging analysis; format: ADME, organism-based; conditions: in vivo, 0.5 h
Heart [8] = experiment: Biodistribution in tumor bearing Mus musculus KM (mouse) heart at 5 min by microPET imaging analysis; format: ADME, organism-based; conditions: in vivo
Heart [9] = experiment: Biodistribution in tumor bearing Mus musculus KM (mouse) heart at 15 min by microPET imaging analysis; format: ADME, organism-based; conditions: in vivo, 0.25 h
[10] = Octanol-PBS partition coefficient of the compound at pH 7.4 by gamma counter; format: physicochemical; conditions: read-out: log KOW
Tumour [11] = experiment: Biodistribution in tumor of Mus musculus KM (mouse) by microPET imaging analysis; format: ADME, organism-based, Neoplasm; conditions: in vivo, TDE = time-dependent effect
Brain [12] = experiment: Biodistribution in tumor bearing Mus musculus KM (mouse) brain by microPET imaging analysis; format: ADME, organism-based; conditions: in vivo, TDE = time-dependent effect
Blood [13] = experiment: Biodistribution in tumor bearing Mus musculus KM (mouse) blood by microPET imaging analysis; format: ADME, organism-based; conditions: in vivo, TDE = time-dependent effect
Muscle tissue [14] = experiment: Biodistribution in tumor bearing Mus musculus KM (mouse) muscle by microPET imaging analysis; format: ADME, organism-based; conditions: in vivo, TDE = time-dependent effect
Kidney [15] = experiment: Biodistribution in tumor bearing Mus musculus KM (mouse) kidney by microPET imaging analysis; format: ADME, organism-based; conditions: in vivo, TDE = time-dependent effect
Lung [16] = experiment: Biodistribution in tumor bearing Mus musculus KM (mouse) lung by microPET imaging analysis; format: ADME, organism-based; conditions: in vivo, TDE = time-dependent effect
Spleen [17] = experiment: Biodistribution in tumor bearing Mus musculus KM (mouse) spleen by microPET imaging analysis; format: ADME, organism-based; conditions: in vivo, TDE = time-dependent effect
Liver [18] = experiment: Biodistribution in tumor bearing Mus musculus KM (mouse) liver by microPET imaging analysis; format: ADME, organism-based; conditions: in vivo, TDE = time-dependent effect
Heart [19] = experiment: Biodistribution in tumor bearing Mus musculus KM (mouse) heart by microPET imaging analysis; format: ADME, organism-based; conditions: in vivo, TDE = time-dependent effect
Nucleic Acid [20] = experiment: Ratio of drug uptake in tumor to muscle in Mus musculus KM (mouse) at 60 min; format: ADME, nucleic-acid assay; conditions: in vivo, 1 h
Nucleic Acid [21] = experiment: Ratio of drug uptake in tumor to muscle in Mus musculus KM (mouse) at 120 min; format: ADME; conditions: in vivo, 2 h
Nucleic Acid [22] = experiment: Ratio of drug uptake in tumor to muscle in Mus musculus KM (mouse) at 30 min; format: ADME, nucleic-acid assay; conditions: in vivo, 0.5 h
Nucleic Acid [23] = experiment: Ratio of drug uptake in tumor to muscle in Mus musculus KM (mouse) at 15 min; format: ADME, nucleic-acid assay; conditions: in vivo, 0.25 h
Spleen [24] = experiment: Biodistribution in tumor bearing Mus musculus KM (mouse) spleen at 15 min by microPET imaging analysis; format: ADME, organism-based; conditions: in vivo, 0.25 h
Liver [25] = experiment: Biodistribution in tumor bearing Mus musculus KM (mouse) liver at 120 min by microPET imaging analysis; format: ADME, organism-based; conditions: in vivo, 2 h
Spleen [26] = experiment: Biodistribution in tumor bearing Mus musculus KM (mouse) spleen at 5 min by microPET imaging analysis; format: ADME, organism-based; conditions: in vivo
Tumour [27] = experiment: Biodistribution in Mus musculus KM (mouse) tumor at 120 min by microPET imaging analysis; format: ADME, organism-based, Neoplasm; conditions: in vivo, 2 h
Tumour [28] = experiment: Biodistribution in Mus musculus KM (mouse) tumor at 60 min by microPET imaging analysis; format: ADME, organism-based, Neoplasm; conditions: in vivo, 1 h
Tumour [29] = experiment: Biodistribution in Mus musculus KM (mouse) tumor at 30 min by microPET imaging analysis; format: ADME, organism-based, Neoplasm; conditions: in vivo, 0.5 h
Tumour [30] = experiment: Biodistribution in Mus musculus KM (mouse) tumor at 5 min by microPET imaging analysis; format: ADME, organism-based, Neoplasm; conditions: in vivo
Tumour [31] = experiment: Biodistribution in Mus musculus KM (mouse) tumor at 15 min by microPET imaging analysis; format: ADME, organism-based, Neoplasm; conditions: in vivo, 0.25 h
Brain [32] = experiment: Biodistribution in tumor bearing Mus musculus KM (mouse) brain at 120 min by microPET imaging analysis; format: ADME, organism-based; conditions: in vivo, 2 h
Brain [33] = experiment: Biodistribution in tumor bearing Mus musculus KM (mouse) brain at 60 min by microPET imaging analysis; format: ADME, organism-based; conditions: in vivo, 1 h
Brain [34] = experiment: Biodistribution in tumor bearing Mus musculus KM (mouse) brain at 15 min by microPET imaging analysis; format: ADME, organism-based; conditions: in vivo, 0.25 h
Brain [35] = experiment: Biodistribution in tumor bearing Mus musculus KM (mouse) brain at 30 min by microPET imaging analysis; format: ADME, organism-based; conditions: in vivo, 0.5 h
Brain [36] = experiment: Biodistribution in tumor bearing Mus musculus KM (mouse) brain at 5 min by microPET imaging analysis; format: ADME, organism-based; conditions: in vivo
Blood [37] = experiment: Biodistribution in tumor bearing Mus musculus KM (mouse) blood at 120 min by microPET imaging analysis; format: ADME, organism-based; conditions: in vivo, 2 h
Blood [38] = experiment: Biodistribution in tumor bearing Mus musculus KM (mouse) blood at 60 min by microPET imaging analysis; format: ADME, organism-based; conditions: in vivo, 1 h
Blood [39] = experiment: Biodistribution in tumor bearing Mus musculus KM (mouse) blood at 30 min by microPET imaging analysis; format: ADME, organism-based; conditions: in vivo, 0.5 h
Blood [40] = experiment: Biodistribution in tumor bearing Mus musculus KM (mouse) blood at 15 min by microPET imaging analysis; format: ADME, organism-based; conditions: in vivo, 0.25 h
Blood [41] = experiment: Biodistribution in tumor bearing Mus musculus KM (mouse) blood at 5 min by microPET imaging analysis; format: ADME, organism-based; conditions: in vivo
Muscle tissue [42] = experiment: Biodistribution in tumor bearing Mus musculus KM (mouse) muscle at 120 min by microPET imaging analysis; format: ADME, organism-based; conditions: in vivo, 2 h
Muscle tissue [43] = experiment: Biodistribution in tumor bearing Mus musculus KM (mouse) muscle at 30 min by microPET imaging analysis; format: ADME, organism-based; conditions: in vivo, 0.5 h
Muscle tissue [44] = experiment: Biodistribution in tumor bearing Mus musculus KM (mouse) muscle at 60 min by microPET imaging analysis; format: ADME, organism-based; conditions: in vivo, 1 h
Muscle tissue [45] = experiment: Biodistribution in tumor bearing Mus musculus KM (mouse) muscle at 15 min by microPET imaging analysis; format: ADME, organism-based; conditions: in vivo, 0.25 h
Muscle tissue [46] = experiment: Biodistribution in tumor bearing Mus musculus KM (mouse) muscle at 5 min by microPET imaging analysis; format: ADME, organism-based; conditions: in vivo
Kidney [47] = experiment: Biodistribution in tumor bearing Mus musculus KM (mouse) kidney at 120 min by microPET imaging analysis; format: ADME, organism-based; conditions: in vivo, 2 h
Kidney [48] = experiment: Biodistribution in tumor bearing Mus musculus KM (mouse) kidney at 60 min by microPET imaging analysis; format: ADME, organism-based; conditions: in vivo, 1 h
Kidney [49] = experiment: Biodistribution in tumor bearing Mus musculus KM (mouse) kidney at 30 min by microPET imaging analysis; format: ADME, organism-based; conditions: in vivo, 0.5 h
Kidney [50] = experiment: Biodistribution in tumor bearing Mus musculus KM (mouse) kidney at 5 min by microPET imaging analysis; format: ADME, organism-based; conditions: in vivo
Kidney [51] = experiment: Biodistribution in tumor bearing Mus musculus KM (mouse) kidney at 15 min by microPET imaging analysis; format: ADME, organism-based; conditions: in vivo, 0.25 h
Lung [52] = experiment: Biodistribution in tumor bearing Mus musculus KM (mouse) Lung at 120 min by microPET imaging analysis; format: ADME, organism-based; conditions: in vivo, 2 h
Lung [53] = experiment: Biodistribution in tumor bearing Mus musculus KM (mouse) Lung at 60 min by microPET imaging analysis; format: ADME, organism-based; conditions: in vivo, 1 h
Lung [54] = experiment: Biodistribution in tumor bearing Mus musculus KM (mouse) Lung at 30 min by microPET imaging analysis; format: ADME, organism-based; conditions: in vivo, 0.5 h
Lung [55] = experiment: Biodistribution in tumor bearing Mus musculus KM (mouse) Lung at 15 min by microPET imaging analysis; format: ADME, organism-based; conditions: in vivo, 0.25 h
Spleen [56] = experiment: Biodistribution in tumor bearing Mus musculus KM (mouse) spleen at 120 min by microPET imaging analysis; format: ADME, organism-based; conditions: in vivo, 2 h
Lung [57] = experiment: Biodistribution in tumor bearing Mus musculus KM (mouse) Lung at 5 min by microPET imaging analysis; format: ADME, organism-based; conditions: in vivo
Spleen [58] = experiment: Biodistribution in tumor bearing Mus musculus KM (mouse) spleen at 60 min by microPET imaging analysis; format: ADME, organism-based; conditions: in vivo, 1 h
Spleen [59] = experiment: Biodistribution in tumor bearing Mus musculus KM (mouse) spleen at 30 min by microPET imaging analysis; format: ADME, organism-based; conditions: in vivo, 0.5 h

O=C(O)CNC(=O)c1ccc(OCC[18F])cc1 [[18F]FEBA hydrolytic acid]
Drug uptake (Liver [1]): 0.38 % ID/g
Drug uptake (Liver [2]): 0.25 % ID/g
Drug uptake (Liver [3]): 2.75 % ID/g
Drug uptake (Liver [4]): 1.08 % ID/g
Drug uptake (Heart [5]): 0.25 % ID/g
Drug uptake (Heart [6]): 0.22 % ID/g
Drug uptake (Heart [7]): 0.28 % ID/g
Drug uptake (Heart [8]): 2.24 % ID/g
Drug uptake (Heart [9]): 0.75 % ID/g
logD [10]: -1.55
Drug uptake (Tumour [11]): tde
Drug uptake (Brain [12]): tde
Drug uptake (Blood [13]): tde
Drug uptake (Muscle tissue [14]): tde
Drug uptake (Kidney [15]): tde
Drug uptake (Lung [16]): tde
Drug uptake (Spleen [17]): tde
Drug uptake (Liver [18]): tde
Drug uptake (Heart [19]): tde
Ratio (Nucleic Acid [20]): 1.93
Ratio (Nucleic Acid [21]): 2.57
Ratio (Nucleic Acid [22]): 0.99
Ratio (Nucleic Acid [23]): 1.09
Drug uptake (Spleen [24]): 0.48 % ID/g
Drug uptake (Liver [25]): 0.37 % ID/g
Drug uptake (Spleen [26]): 1.12 % ID/g
Drug uptake (Tumour [27]): 0.36 % ID/g
Drug uptake (Tumour [28]): 0.29 % ID/g
Drug uptake (Tumour [29]): 0.47 % ID/g
Drug uptake (Tumour [30]): 1.72 % ID/g
Drug uptake (Tumour [31]): 0.89 % ID/g
Drug uptake (Brain [32]): 0.13 % ID/g
Drug uptake (Brain [33]): 0.06 % ID/g
Drug uptake (Brain [34]): 0.23 % ID/g
Drug uptake (Brain [35]): 0.12 % ID/g
Drug uptake (Brain [36]): 0.34 % ID/g
Drug uptake (Blood [37]): 0.3 % ID/g
Drug uptake (Blood [38]): 0.18 % ID/g
Drug uptake (Blood [39]): 0.39 % ID/g
Drug uptake (Blood [40]): 1.45 % ID/g
Drug uptake (Blood [41]): 4.57 % ID/g
Drug uptake (Muscle tissue [42]): 0.14 % ID/g
Drug uptake (Muscle tissue [43]): 0.47 % ID/g
Drug uptake (Muscle tissue [44]): 0.15 % ID/g
Drug uptake (Muscle tissue [45]): 0.82 % ID/g
Drug uptake (Muscle tissue [46]): 1.35 % ID/g
Drug uptake (Kidney [47]): 0.32 % ID/g
Drug uptake (Kidney [48]): 0.46 % ID/g
Drug uptake (Kidney [49]): 1.17 % ID/g
Drug uptake (Kidney [50]): 17.9 % ID/g
Drug uptake (Kidney [51]): 5.15 % ID/g
Drug uptake (Lung [52]): 0.2 % ID/g
Drug uptake (Lung [53]): 0.18 % ID/g
Drug uptake (Lung [54]): 0.37 % ID/g
Drug uptake (Lung [55]): 1.11 % ID/g
Drug uptake (Spleen [56]): 0.2 % ID/g
Drug uptake (Lung [57]): 3.37 % ID/g
Drug uptake (Spleen [58]): 0.21 % ID/g
Drug uptake (Spleen [59]): 0.22 % ID/g
